# From patent publication US6495133B1, “Gliocladium roseum strains useful for the control of fungal pathogens in plants” (priority 1998, dated 2002)
# Columns and labels:
# [1] = system: Fusarium solani; experiment: Control of fusarium root rot in field pea, growth room experiments; settings: Field pea (cv. Radley)
# Protocol: (§1) In growth room experiments, seeds were planted in wood planting flats (35.5×47.0×9.0 cm) containing soil mixture of 2:1:1 of soil, perlite and peat moss. The soil mixture was pasteurized and mixed at about 2% v/v with artificially infested vermiculite that was moistened with 0.4% malt extract, autoclaved, inoculated with B. solani, and incubated at 20° C. for 7 days prior to the planting. […] For each treatment 100 seeds were planted in each of the 4-replicate flats. The planted flats were placed in a growth room maintained at 20° C. and with a 14-h photoperiod at 350 mol.m^−2.s^−1 light intensity by fluorescent and incandescent lamps. All experiments were arranged in a completely randomized block design. Emergence was counted 7 days after planting and other parameters were assessed after digging out plants 14 to 16 days after planting. Disease severity was rated on a scale of 0 (no visible lesions on lower stem and roots, seedling is well developed) to 9 (death of plant, the seedling died back quickly after emergence).
# [2] = system: Sclerotinia sclerotiorum; experiment: Control of sclerotinia rot in field pea, growth room experiments
# Protocol: as §1
# The seed treatment procedures, inoculum preparation, inoculation and assessment methods for both growth room and field experiments were the same as described above.
# [3] = system: field pea; experiment: Comparison and compatibility of ACM941 with thiram fungicide, field pea, field experiments; format: in vivo
# [4] = system: field pea; experiment: Effect of seeding dates on efficacy of seed treatment, field experiments; format: in vivo; as to yield: unit not given here
# [5] = system: Mycosphaerella pinodes; experiment: Control of mycosphaerella seedling blight/root rot in field pea, growth room experiments; settings: Field pea (cv. Radley)
# Protocol: as §1
# [6] = system: Fusarium oxysporum; experiment: Control of fusarium wilt in field pea, growth room experiments; settings: Field pea (cv. Radley)
# Protocol: as §1
# [7] = Lacombe site, average of two cultivars and two years
# [8] = Morden site, average of two cultivars and two years
# [9] = Optimum seeding, 1995, AC Tamor
# [10] = Optimum seeding, 1996, AC Tamor
compound,measurement,setting,value
"CN(C)C(=S)SSC(=S)N(C)C [Thiram, thiram]",Dry wt.,[1],0.27 a g/plant
same,Emergence,[1],57.5 a %
same,Fresh wt.,[1],2.7 a g/plant
same,Root rot severity,[1],3.3 ab 0-9
same,Dry wt.,[2]; Field pea (cv. Radley),0.23 a g/plant
same,Emergence,[2]; Field pea (cv. Radley),68.1 a %
same,Fresh wt.,[2]; Field pea (cv. Radley),2.2 a g/plant
same,Root rot severity,[2]; Field pea (cv. Radley),3.2 ab 0-9
same,effect on dry weight compared to the nontreated control,[2]; greenhouse experiments,Neither ACM941 nor thiram fungicide showed an increase in dry weight
same,increased emergence by,[3]; [7],4%
same,reduced yield by,[3]; [7],4%
same,Emergence,"[3]; Lacombe, Alberta, 1996, Grande",87.2 a
same,Yield,"[3]; Lacombe, Alberta, 1996, Grande",8729 a
same,Emergence,"[3]; Lacombe, Alberta, 1996, Radley",84.0 a
same,Yield,"[3]; Lacombe, Alberta, 1996, Radley",5782 a
same,Emergence,"[3]; Lacombe, Alberta, 1997, Grande",67.0 b
same,Yield,"[3]; Lacombe, Alberta, 1997, Grande",6507 b
same,Emergence,"[3]; Lacombe, Alberta, 1997, Radley",87.3 a
same,Yield,"[3]; Lacombe, Alberta, 1997, Radley",4300 a
same,increased emergence by,[3]; [8],38%
same,increased yield by,[3]; [8],29%
same,Emergence,"[3]; Morden, Manitoba, 1996, Grande",64.9 a
same,Yield,"[3]; Morden, Manitoba, 1996, Grande",4541 a
same,Emergence,"[3]; Morden, Manitoba, 1996, Radley",74.1 a
same,Yield,"[3]; Morden, Manitoba, 1996, Radley",3286 a
same,Emergence,"[3]; Morden, Manitoba, 1997, Grande",65.0 a
same,Yield,"[3]; Morden, Manitoba, 1997, Grande",1878 a
same,Emergence,"[3]; Morden, Manitoba, 1997, Radley",79.1 a
same,Yield,"[3]; Morden, Manitoba, 1997, Radley",1064 c
same,increased yield by,"[3]; average of the four station years, two sites",12%
same,Emergence,"[4]; Early seeding, 1995, AC Tamor",66.7 a
same,Yield,"[4]; Early seeding, 1995, AC Tamor",4934 a
same,Emergence,"[4]; Early seeding, 1995, Radley",72.4 a
same,Yield,"[4]; Early seeding, 1995, Radley",4566 a
same,Emergence,"[4]; Early seeding, 1996, AC Tamor",81.6 a
same,Yield,"[4]; Early seeding, 1996, AC Tamor",2069 b
same,Emergence,"[4]; Early seeding, 1996, Radley",79.5 a
same,Yield,"[4]; Early seeding, 1996, Radley",1295 a
same,Emergence,"[4]; Late seeding, 1995, AC Tamor",35.8 b
same,Yield,"[4]; Late seeding, 1995, AC Tamor",2454 a
same,Emergence,"[4]; Late seeding, 1995, Radley",55.0 a
same,Yield,"[4]; Late seeding, 1995, Radley",3235 a
same,Emergence,"[4]; Late seeding, 1996, AC Tamor",87.2 a
same,Yield,"[4]; Late seeding, 1996, AC Tamor",2857 a
same,Emergence,"[4]; Late seeding, 1996, Radley",84.7 a
same,Yield,"[4]; Late seeding, 1996, Radley",1706 a
same,Emergence,[4]; [9],62.8 a
same,Yield,[4]; [9],3855 a
same,Emergence,"[4]; Optimum seeding, 1995, Radley",81.3 a
same,Yield,"[4]; Optimum seeding, 1995, Radley",2901 a
same,Emergence,[4]; [10],75.5 a
same,Yield,[4]; [10],3152 a
same,Emergence,"[4]; Optimum seeding, 1996, Radley",84.7 a
same,Yield,"[4]; Optimum seeding, 1996, Radley",1580 a
same,Dry wt.,[5],0.32 a g/plant
same,Emergence,[5],67.5 a %
same,Fresh wt.,[5],3.1 a g/plant
same,Root rot severity,[5],2.3 a 0-9
same,Dry wt.,[6],0.34 a g/plant
same,Emergence,[6],86.3 a %
same,Fresh wt.,[6],3.1 a g/plant
same,Root rot severity,[6],1.3 a 0-9
